Legend:
CRBN = biological target: T1, CRBN (Homo sapiens, UniProt Q96SW2); test: Intracellular CRBN binding in NanoLuc-CRBN-overexpressing HEK293T cells; assay type: cell-based; details: read-out: Cellular CRBN Binding IC50 (nM ± SD)
T1 construct: expressed in transfected cells; host or cells: HEK293T
Procedure: NanoLuc‐CRBN‐overexpressing HEK293T were seeded in 96‐well plates at a density of 2000 per well. The following day, compounds was added to the plate starting from 10 µM for a 3‐fold gradient dilution and incubated for 2 h. […] Finally, the signal was measured using an Envision plate reader (Revvity) and the data were analyzed using the GraphPad Prism 9.5 software.

TEAD1, TEAD3, and TEAD4 = test: Immunoblot dose-response in TEAD1-mNeonGreen fusion NCI-H1299 cells; assay type: cell-based; details: 6 h
Procedure: Immunoblotting was carried out as previously described.^[ [29] ^] Cells were seeded in 6‐well plates (Yeasen, #84011ES50) at a density of 1 million cells per well. The following day, cells were treated with compounds at the required concentrations, with the DMSO concentration kept below 0.4‰ to prevent toxic effects on the cells. The collected cell pellets were washed three times with PBS (Meilunbio, #MA0015) and resuspended in 120 µL of RIPA lysis buffer (Meilunbio, #MA0151) containing 1% protease inhibitor (Meilunbio, #MB2678‐2). The cells were then sonicated on ice and centrifuged at 12 000 rpm for 15 min at 4 °C to remove cellular debris. Protein concentrations were determined using the BCA Protein Quantification Kit (Meilunbio, #MA0082‐1). The protein samples were normalized, boiled at 99 °C for 10 min, and then subjected to electrophoresis on a 10% SDS‐PAGE gel. The separated protein bands were transferred to nitrocellulose membranes, blocked with TBST containing 5% BSA, and incubated with the indicated primary antibodies. Finally, the blots were imaged using an Amersham Typhoon NIR imager.

MSTO-211H xenograft = MSTO-211H xenograft pharmacodynamic study (3 mg/kg i.p.); assay type: in vivo, BALB/c nude mice; details: 3 mg/kg i.p. q.d. 21 days
Procedure: Animal experiments were conducted by Medsyin (Shanghai) Co., Ltd. The experimental protocol was approved by the IACUC of the company (No.: PZWH20240527‐1) and strictly adhered to the guidelines of AAALAC. The specific procedures are as follows: 5 × 10^6 MSTO‐211H cells were suspended in 100 µL of a mixture of PBS and Matrigel and inoculated subcutaneously into the right axilla of 6‐week‐old BALB/c nude mice. Drug administration was initiated on day 7 after cell inoculation (when the average tumor volume was ≈150 mm^3). The experiment was divided into two groups: one group served as the control group, and the other group received drug administration via intraperitoneal injection at a dose of 3 mg kg^−1 (6 mice in each group), once a day for 21 consecutive days. During the experiment, the body weight and tumor volume of the mice were measured twice a week. At the end of the experiment, the mice were sacrificed and tumor tissues were collected.

A172 cells = test: RNA-seq transcriptomics in A172 cells; assay type: cell-based; details: 30 nM, 24 h
Procedure: Following treatment, cells were harvested, washed three times with pre‐chilled PBS, and stored at −80 °C. Total RNA was extracted using TRIzol reagent according to the manufacturer's instructions. mRNA was enriched using oligo(dT) magnetic beads, followed by fragmentation in First Strand Synthesis Reaction Buffer (5×) with divalent cations under elevated temperature.
RNA‐seq libraries were constructed using the ABclonal Fast RNAseq Lib Prep Kit V2 (#RK20306). […] Base calling was performed through real‐time fluorescence capture of polymerase‐driven extension reactions using fluorescently labeled dNTPs and adapter‐anchored primers. Gene‐level read counts were quantified using featureCounts (v2.0.6) and normalized to FPKM values by incorporating gene length. Differential expression analysis was conducted using the DESeq2 package (v1.42.0) for samples with biological replicates, based on the negative binomial distribution. P‐values were adjusted using the Benjamini–Hochberg method, with significance thresholds set at adjusted p ≤ 0.05 and |log2(fold change)| ≥ 1. For samples without replicates, edgeR (v4.0.16) was used, with scaling normalization applied to correct for sequencing depth differences. Functional enrichment analysis, including Gene Ontology (GO) and KEGG pathway analysis, was performed using clusterProfiler (v4.8.1), with correction for gene length bias. A significance threshold of adjusted p < 0.05 was applied. In addition, Gene Set Enrichment Analysis (GSEA) was performed to assess coordinated expression changes in predefined gene sets (GO and KEGG), with genes ranked by the magnitude of differential expression. All transcriptomic experiments were performed by Novogene Co., Ltd.

BMF, CTGF expression = test: RT-qPCR in MSTO-211H cells; assay type: cell-based
Procedure: Cells were seeded in 6‐well plates at a density of 1 million cells per well. The following day, different concentrations of compounds were added, and cells were collected after 24 h. For wash‐out experiments, cells were pre‐treated with compounds at indicated concentrations for 6 h, then cells were washed three times with PBS, and an equal volume of complete medium without compounds was added and incubated for another 18 h.
RNA was isolated and purified from the samples using the EZ‐10 Rotary Column Total RNA Isolation Kit (Sangon Biotech, B615012). After measuring the RNA concentration, 200 ng of purified RNA was used for genomic DNA removal and reverse transcription to cDNA with the HiScript III 1st Strand cDNA Synthesis Kit (+DNA wiper) (Vazyme, R312‐02). The resulting cDNA was then prepared into a reaction mix according to the ChamQ SYBR qPCR Mix (Vazyme, #q711‐02). Real‐time PCR analysis was performed using a QuantStudio 6 Pro real‐time PCR system (Thermo Fisher Scientific). Relative gene expression was calculated using the 2‐∆∆CT method. The primers used in this study were provided in the Supporting Information (Table S1, Supporting Information)

[1] = system: CTGF, ANKRD1, NPPB, PTX3 expression; test: RT-qPCR in A172 cells incl. washout; assay type: cell-based; details: 6 h treatment, 18 h

T1 sequence (Q96SW2 whole entry): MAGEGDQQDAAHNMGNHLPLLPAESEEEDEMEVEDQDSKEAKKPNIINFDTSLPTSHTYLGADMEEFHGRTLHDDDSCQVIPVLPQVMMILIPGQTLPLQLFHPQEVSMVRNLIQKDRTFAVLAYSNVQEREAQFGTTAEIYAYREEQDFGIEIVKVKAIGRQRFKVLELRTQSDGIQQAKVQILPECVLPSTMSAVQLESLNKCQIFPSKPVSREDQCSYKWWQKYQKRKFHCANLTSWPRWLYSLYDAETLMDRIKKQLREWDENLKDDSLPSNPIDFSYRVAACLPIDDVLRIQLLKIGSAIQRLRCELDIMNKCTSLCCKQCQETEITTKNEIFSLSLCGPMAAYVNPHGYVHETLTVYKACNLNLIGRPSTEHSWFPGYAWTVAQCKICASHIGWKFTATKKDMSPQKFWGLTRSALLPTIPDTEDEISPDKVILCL

CNC(=O)c1cc2c(c(F)c1-c1c(Cl)c(F)cc3c1C[C@@](CN[C@H]1CC[C@H](C(=O)N4CCC(CC5CCN(C(=O)COc6ccc(N7CCC(=O)NC7=O)c(C)c6)CC5)CC4)CC1)(c1ccccc1)O3)[C@@H](O)[C@@H](C)C2 [KG-FP-003]
IC50 (CRBN): 962 ± 86 nM
DC50 against TEAD1, TEAD3, and TEAD4 by immunoblot (TEAD1, TEAD3, and TEAD4): nanomolar range
TEAD1 protein degradation in tumor (MSTO-211H xenograft): pronounced degradation of TEAD1 protein
Tumor growth inhibition versus vehicle (MSTO-211H xenograft): significant tumor growth inhibition
Share of the compound's regulated genes in the 56-gene overlap (A172 cells): 4%
DEG gene counts (Down) (A172 cells; VS Control (DMSO)): 611
DEG gene counts (Up) (A172 cells; VS Control (DMSO)): 662
Expression of TEAD target gene CTGF (qPCR) (BMF, CTGF expression): downregulation
Expression of pro-apoptotic gene BMF (qPCR) (BMF, CTGF expression): dramatic upregulation
Repression of TEAD target genes after washout (qPCR) [1]: sustained and pronounced repression

Source: paper PMC12752627, “Discovery of a Potent and Selective TEAD Degrader with Durable Degradation Activity” (Advanced Science, 2025)
